These results are taken from US20230340011A1 (Asteroid Therapeutics, priority 2022, published 2023).

One experiment has as its target SREBP-2 (Homo sapiens (Human), UniProt Q12772). The experiment in a line: In vitro assay SREBP-2: PathHunter U2OS SREBP-2 Nuclear Translocation Cell Line, U18666A-stimulated. As to conditions: PathHunter U2OS SREBP-2 nuclear translocation cells, U18666A 10 μM, overnight (16 hours). It counts as cell-based.
Another experiment addresses LXRβ (Homo sapiens (Human), UniProt P55055). The experiment in a line: In vitro assay LXRβ: PathHunter NHR CHO cells, LXRβ / Steroid Receptor Co-activator Peptide enzyme fragment complementation. As to conditions: PathHunter NHR CHO cells, full-length human LXRβ and SRCP, chemiluminescent signal; read-out: LXRβ PPI. It counts as cell-based. In a few lines: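 Enzyme fragment complementation read-out: CHO cells stably expressing ProLink-tagged full-length human LXRβ plus nuclear enzyme acceptor–SRCP fusion, seeded and held overnight at 37° C. Medium with charcoal-dextran filtered serum; final vehicle 1%. Chemiluminescence measured after signal generation.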

Where a name gives a salt, the structure may show the parent alone.

Sequence of LXRβ (P55055 whole entry, the tested form may be a part): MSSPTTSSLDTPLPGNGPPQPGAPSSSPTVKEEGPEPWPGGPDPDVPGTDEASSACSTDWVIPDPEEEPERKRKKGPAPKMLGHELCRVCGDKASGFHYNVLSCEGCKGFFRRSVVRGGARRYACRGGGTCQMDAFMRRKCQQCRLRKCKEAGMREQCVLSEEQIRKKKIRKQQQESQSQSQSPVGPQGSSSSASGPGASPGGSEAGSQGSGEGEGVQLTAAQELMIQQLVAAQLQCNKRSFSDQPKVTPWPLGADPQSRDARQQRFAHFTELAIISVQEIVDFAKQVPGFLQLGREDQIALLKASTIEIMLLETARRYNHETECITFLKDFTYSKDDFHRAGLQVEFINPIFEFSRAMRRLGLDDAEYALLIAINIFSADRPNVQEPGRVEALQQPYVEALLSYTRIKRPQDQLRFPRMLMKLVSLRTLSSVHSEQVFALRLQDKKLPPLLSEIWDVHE

As to `C[C@H](CCC(=O)N1CCN(c2nnnn2C)CC1)[C@H]1CC[C@H]2[C@@H]3CC=C4C[C@@H](O)CC[C@]4(C)[C@H]3CC[C@]12C` [Example 606, (R)-4-((3S,8S,9S,10R,13R,14S,17R)-3-hydroxy-10,13-dimethyl-2,3,4,7,8,9,10,11,12,13,14,15,16,17-tetradecahydro-1H-cyclopenta[a]phenanthren-17-yl)-1-(4-(1-methyl-1H-tetrazol-5-yl)piperazin-1-yl)pentan-1-one], the IC50 against SREBP-2 is less than 0.25 µM. Also, on LXRβ, the EC50 is more than 10 µM.

`CC(=O)N(C)[C@@H]1CCN(C(=O)CC[C@@H](C)[C@H]2CC[C@H]3[C@@H]4CC=C5C[C@@H](O)CC[C@]5(C)[C@H]4CC[C@]23C)C1` [Example 323, N—((R)-1-((R)-4-((3S,8S,9S,10R,13R,14S,17R)-3-hydroxy-10,13-dimethyl-2,3,4,7,8,9,10,11,12,13,14,15,16,17-tetradecahydro-1H-cyclopenta[a]phenanthren-17-yl)pentanoyl)pyrrolidin-3-yl)-N-methylacetamide] had a concentration for half-maximal inhibition (IC50) on SREBP-2 of 0.25 to 1 µM. For the same compound, the EC50 on LXRβ is more than 10 µM.

On to `C[C@H](CCC(=O)N1CCN(C(=O)c2ncccn2)CC1)[C@H]1CC[C@H]2[C@@H]3CC=C4C[C@@H](O)CC[C@]4(C)[C@H]3CC[C@]12C` [Example 332, (R)-4-((3S,8S,9S,10R,13R,14S,17R)-3-hydroxy-10,13-dimethyl-2,3,4,7,8,9,10,11,12,13,14,15,16,17-tetradecahydro-1H-cyclopenta[a]phenanthren-17-yl)-1-(4-(pyrimidine-2-carbonyl)piperazin-1-yl)pentan-1-one], for which, on SREBP-2, the IC50 is less than 0.25 µM. Also, the EC50 on LXRβ was more than 10 µM.

Compound `COC(=O)N1CCC12CN(C(=O)CC[C@@H](C)[C@H]1CC[C@H]3[C@@H]4CC=C5C[C@@H](O)CC[C@]5(C)[C@H]4CC[C@]13C)C2` [Example 552, methyl6-((R)-4-((3S,8S,9S,10R,13R,14S,17R)-3-hydroxy-10,13-dimethyl-2,3,4,7,8,9,10,11,12,13,14,15,16,17-tetradecahydro-1H-cyclopenta[a]phenanthren-17-yl)pentanoyl)-1,6-diazaspiro[3.3]heptane-1-carboxylate] gave a 50% inhibitory concentration (IC50) against SREBP-2 of 1 to 10 µM. The EC50 on LXRβ is more than 10 µM.

The compound `C[C@H](CCC(=O)N1CCN(C(=O)N(C)C)C[C@@H]1C)[C@H]1CC[C@H]2[C@@H]3CC=C4C[C@@H](O)CC[C@]4(C)[C@H]3CC[C@]12C` [Example 582, (S)-4-((R)-4-((3S,8S,9S,10R,13R,14S,17R)-3-hydroxy-10,13-dimethyl-2,3,4,7,8,9,10,11,12,13,14,15,16,17-tetradecahydro-1H-cyclopenta[a]phenanthren-17-yl)pentanoyl)-N,N,3-trimethylpiperazine-1-carboxamide] had an IC50 against SREBP-2 of less than 0.25 µM. Further, the EC50 on LXRβ was more than 10 µM.

`C[C@H](CCC(=O)N(C)OCCN)[C@H]1CC[C@H]2[C@@H]3CC=C4C[C@@H](O)CC[C@]4(C)[C@H]3CC[C@]12C` [Example 28, (R)—N-(2-aminoethoxy)-4-((3S,8S,9S,10R,13R,14S,17R)-3-hydroxy-10,13-dimethyl-2,3,4,7,8,9,10,11,12,13,14,15,16,17-tetradecahydro-1H-cyclopenta[a]phenanthren-17-yl)-N-methylpentanamide hydrochloride] had an IC50 on SREBP-2 of 0.25 to 1 µM. Also, at LXRβ, the EC50 was more than 10 µM.

Regarding `C[C@H](CCc1ccc2ccccc2n1)[C@H]1CC[C@H]2[C@@H]3CC=C4C[C@@H](O)CC[C@]4(C)[C@H]3CC[C@]12C` [Example 178, (3S,8S,9S,10R,13R,14S,17R)-10,13-dimethyl-17-((R)-4-(quinolin-2-yl)butan-2-yl)-2,3,4,7,8,9,10,11,12,13,14,15,16,17-tetradecahydro-1H-cyclopenta[a]phenanthren-3-ol], on SREBP-2, the IC50 fell in the range of 0.25 to 1 µM. Moreover, the EC50 at LXRβ is more than 10 µM.

`C=CCN1C[C@H]2CCN(C(=O)CC[C@@H](C)[C@H]3CC[C@H]4[C@@H]5CC=C6C[C@@H](O)CC[C@]6(C)[C@H]5CC[C@]34C)[C@H]2C1` [Example 140, (R)-1-((3aR,6aR)-5-allylhexahydropyrrolo[3,4-b]pyrrol-1(2H)-yl)-4-((3S,8S,9S,10R,13R,14S,17R)-3-hydroxy-10,13-dimethyl-2,3,4,7,8,9,10,11,12,13,14,15,16,17-tetradecahydro-1H-cyclopenta[a]phenanthren-17-yl)pentan-1-one]: on SREBP-2, the 50% inhibitory concentration (IC50) is 0.25 to 1 µM. Further, at LXRβ, the EC50 is more than 10 µM.

`C[C@H](OC(=O)C(=O)N1CCCC1)[C@H]1CC[C@H]2[C@@H]3CC=C4C[C@@H](O)CC[C@]4(C)[C@H]3CC[C@]12C` [Example 198, (S)-1-((3S,8S,9S,10R,13S,14S,17S)-3-hydroxy-10,13-dimethyl-2,3,4,7,8,9,10,11,12,13,14,15,16,17-tetradecahydro-1H-cyclopenta[a]phenanthren-17-yl)ethyl 2-oxo-2-(pyrrolidin-1-yl)acetate] yielded an IC50 on SREBP-2 of less than 0.25 µM. At LXRβ, the EC50 fell in the range of 1 to 10 µM.

The compound `COc1cccnc1N1CCN(C(=O)CC[C@@H](C)[C@H]2CC[C@H]3[C@@H]4CC=C5C[C@@H](O)CC[C@]5(C)[C@H]4CC[C@]23C)CC1` [Example 613, (R)-4-((3S,8S,9S,10R,13R,14S,17R)-3-hydroxy-10,13-dimethyl-2,3,4,7,8,9,10,11,12,13,14,15,16,17-tetradecahydro-1H-cyclopenta[a]phenanthren-17-yl)-1-(4-(3-methoxypyridin-2-yl)piperazin-1-yl)pentan-1-one] yielded an IC50 on SREBP-2 of less than 0.25 µM. Moreover, the EC50 at LXRβ is more than 10 µM.

Take `Cc1cccnc1OC[C@@H](C)[C@H]1CC[C@H]2[C@@H]3CC=C4C[C@@H](O)CC[C@]4(C)[C@H]3CC[C@]12C` [Example 261, (3S,8S,9S,10R,13S,14S,17R)-10,13-dimethyl-17-((S)-1-((3-methylpyridin-2-yl)oxy)propan-2-yl)-2,3,4,7,8,9,10,11,12,13,14,15,16,17-tetradecahydro-1H-cyclopenta[a]phenanthren-3-ol]: the IC50 against SREBP-2 is less than 0.25 µM. Further, the EC50 on LXRβ is more than 10 µM.

The compound `CC(C)OC(=O)N1CCN(C(=O)CC[C@@H](C)[C@H]2CC[C@H]3[C@@H]4CC=C5C[C@@H](O)CC[C@]5(C)[C@H]4CC[C@]23C)C[C@@H]1C` [Example 576, isopropyl(S)-4-((R)-4-((3S,8S,9S,10R,13R,14S,17R)-3-hydroxy-10,13-dimethyl-2,3,4,7,8,9,10,11,12,13,14,15,16,17-tetradecahydro-1H-cyclopenta[a]phenanthren-17-yl)pentanoyl)-2-methylpiperazine-1-carboxylate] registered an IC50 against SREBP-2 of less than 0.25 µM. Besides, the EC50 on LXRβ is more than 10 µM.

As for `COC(C)C1CCN(C(=O)CC[C@@H](C)[C@H]2CC[C@H]3[C@@H]4CC=C5C[C@@H](O)CC[C@]5(C)[C@H]4CC[C@]23C)CC1` (stereo partly drawn) [Example 469, (4R)-4-((3S,8S,9S,10R,13R,14S,17R)-3-hydroxy-10,13-dimethyl-2,3,4,7,8,9,10,11,12,13,14,15,16,17-tetradecahydro-1H-cyclopenta[a]phenanthren-17-yl)-1-(4-(1-methoxyethyl)piperidin-1-yl)pentan-1-one], the IC50 on SREBP-2 was less than 0.25 µM. In addition, the EC50 at LXRβ was in the range of 0.25 to 1 µM.

A word on the IC50: it is the concentration that gives 50% inhibition. Higher therefore signals lower potency.
